In patent publication US20210395313A1, “PEPTIDE PAC1 ANTAGONISTS” (AMGEN INC., priority 2017, published 2021):
Where a SMILES comes first, the peptide text is derived from it. Bridges are numbered along the chain shown (N, C = ends).

Molecular target: T1, rat PAC1 receptor (Rattus norvegicus, UniProt P32215)
T1 construct: SHSY-5Y (human neuroblastoma cell line) and RG-2 (rat glioma cell line) cells endogenously express human and rat PAC1 receptors, respectively; endogenous in cells; host or cells: RG-2 rat glioma cells
T1 sequence (P32215 20-523): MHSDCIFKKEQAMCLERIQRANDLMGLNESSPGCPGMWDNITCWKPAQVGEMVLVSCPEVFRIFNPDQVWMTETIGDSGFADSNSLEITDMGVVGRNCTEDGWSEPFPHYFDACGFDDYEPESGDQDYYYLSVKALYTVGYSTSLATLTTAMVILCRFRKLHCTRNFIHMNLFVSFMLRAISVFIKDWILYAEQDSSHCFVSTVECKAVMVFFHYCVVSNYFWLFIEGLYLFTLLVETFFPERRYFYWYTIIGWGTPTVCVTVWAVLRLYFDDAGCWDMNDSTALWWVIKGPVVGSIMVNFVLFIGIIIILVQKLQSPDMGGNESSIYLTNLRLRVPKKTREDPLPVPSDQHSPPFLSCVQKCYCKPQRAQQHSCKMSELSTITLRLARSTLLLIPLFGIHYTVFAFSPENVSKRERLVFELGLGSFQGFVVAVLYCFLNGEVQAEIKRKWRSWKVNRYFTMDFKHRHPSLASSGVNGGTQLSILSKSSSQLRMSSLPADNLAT
Assay: LANCE Ultra cAMP accumulation antagonist assay in RG-2 cells;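 further: RG-2 rat glioma cells endogenously expressing PAC1, test peptide preincubated 30 min, then PAC1 agonist added at its EC80 for 15 min, cAMP accumulation read by LANCE Ultra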
Type: cell-based

## CC[C@H](C)[C@H](NC(=O)[C@H](C)NC(=O)[C@H](CCCCN)NC(=O)[C@H](CCCNC(=N)N)NC(=O)[C@H](Cc1ccccc1)NC(=O)[C@H](CCC(N)=O)NC(=O)[C@@H]1CSSC[C@H](N)C(=O)N[C@@H](CC(=O)O)C(=O)N[C@@H](C)C(=O)N[C@@H]([C@@H](C)O)C(=O)N1)C(=O)N[C@@H](CC(=O)O)C(=O)N[C@@H](CC(=O)O)C(=O)N[C@H]1CSSC[C@@H](C(=O)N[C@@H](CCSC)C(=O)N[C@@H](CCCCN)C(=O)N[C@@H](CCC(N)=O)C(=O)N[C@@H](CCCCN)C(=O)N[C@@H](CCCCN)C(=O)N[C@@H](CCCCN)C(=O)N[C@@H](CCC(=O)O)C(=O)N[C@@H](Cc2c[nH]c3ccccc23)C(=O)N[C@@H](CCCCN)C(=O)N[C@@H](C)C(=O)NCC(N)=O)NC(=O)[C@H](C)NC(=O)[C@H](CCCCN)NC(=O)[C@H](Cc2ccccc2)NC(=O)[C@H](C(C)C)NC(=O)[C@H](CO)NC(=O)[C@H](CO)NC(=O)[C@H](Cc2c[nH]cn2)NC(=O)[C@H](CCCCN)NC(=O)[C@H](C)NC(=O)[C@H](CCC(N)=O)NC(=O)[C@H](CCCNC(=N)N)NC(=O)[C@H](C)NC1=O [compound 434] (H-CDATCQFRKAIDDCARQAKHSSVFKACMKQKKKEWKAG-NH2; disulfide 1-5, 14-27)
  IC50: < 0.01 nM

## CC[C@H](C)[C@H](NC(=O)[C@H](C)NC(=O)[C@H](CCCCN)NC(=O)[C@H](CCCNC(=N)N)NC(=O)[C@H](Cc1ccccc1)NC(=O)[C@H](CCC(N)=O)NC(=O)[C@@H]1CSSC[C@H](N)C(=O)N[C@@H](CC(=O)O)C(=O)N[C@@H](C)C(=O)N[C@@H]([C@@H](C)O)C(=O)N1)C(=O)N[C@@H](CC(=O)O)C(=O)N[C@@H](CC(=O)O)C(=O)N[C@H]1CSSC[C@@H](C(=O)N[C@@H](CC(C)C)C(=O)N[C@@H](CCCCN)C(=O)N[C@@H](CCC(N)=O)C(=O)N[C@@H](CCCCN)C(=O)N[C@@H](CCCCN)C(=O)N[C@@H](CCCCN)C(=O)N[C@@H](CCC(=O)O)C(=O)N[C@@H](Cc2c[nH]c3ccccc23)C(=O)N[C@@H](CCCCN)C(=O)N[C@@H](C)C(=O)NCC(N)=O)NC(=O)[C@H](C)NC(=O)[C@H](CCCCN)NC(=O)[C@H](Cc2ccccc2)NC(=O)[C@H](C(C)C)NC(=O)[C@H](CO)NC(=O)[C@H](CO)NC(=O)[C@H](Cc2c[nH]cn2)NC(=O)[C@H](Cc2ccc(O)cc2)NC(=O)[C@H](C)NC(=O)[C@H](CCC(N)=O)NC(=O)[C@H](CCCNC(=N)N)NC(=O)[C@H](C)NC1=O [compound 435] (H-CDATCQFRKAIDDCARQAYHSSVFKACLKQKKKEWKAG-NH2; disulfide 1-5, 14-27)
  IC50: 0.01 to 1 nM

## CC[C@H](C)[C@H](NC(=O)[C@H](C)NC(=O)[C@H](CCCCN)NC(=O)[C@H](CCCNC(=N)N)NC(=O)[C@H](Cc1ccccc1)NC(=O)[C@H](CCC(N)=O)NC(=O)[C@@H]1CSSC[C@H](N)C(=O)N[C@@H](CC(=O)O)C(=O)N[C@@H](C)C(=O)N[C@@H]([C@@H](C)O)C(=O)N1)C(=O)N[C@@H](CC(=O)O)C(=O)N[C@@H](CC(=O)O)C(=O)N[C@H]1CSSC[C@@H](C(=O)N[C@@H](CC(C)C)C(=O)N[C@@H](CCCCN)C(=O)N[C@@H](CCC(N)=O)C(=O)N[C@@H](CCCCN)C(=O)N[C@@H](CCCCN)C(=O)N[C@@H](CCCCN)C(=O)N[C@@H](CCC(=O)O)C(=O)N[C@@H](Cc2c[nH]c3ccccc23)C(=O)N[C@@H](CCCCN)C(=O)N[C@@H](C)C(=O)NCC(N)=O)NC(=O)[C@H](CO)NC(=O)[C@H](CCCCN)NC(=O)[C@H](Cc2ccccc2)NC(=O)[C@H](C(C)C)NC(=O)[C@H](CO)NC(=O)[C@H](CO)NC(=O)[C@H](Cc2c[nH]cn2)NC(=O)[C@H](Cc2ccc(O)cc2)NC(=O)[C@H](C)NC(=O)[C@H](CCC(N)=O)NC(=O)[C@H](CCCNC(=N)N)NC(=O)[C@H](C)NC1=O [compound 436] (H-CDATCQFRKAIDDCARQAYHSSVFKSCLKQKKKEWKAG-NH2; disulfide 1-5, 14-27)
  IC50: 0.01 to 1 nM

## CSCC[C@H](NC(=O)[C@H](C)NC(=O)[C@@H](NC(=O)[C@H](CCCCN)NC(=O)[C@H](CCCCN)NC(=O)[C@H](Cc1ccc(O)cc1)NC(=O)[C@H](CC(C)C)NC(=O)[C@H](CO)NC(=O)[C@H](C)NC(=O)[C@@H](NC(=O)[C@H](CC(C)C)NC(=O)CNC(=O)[C@H](CCCCN)NC(=O)[C@H](CCCNC(=N)N)NC(=O)[C@H](Cc1ccc(O)cc1)NC(=O)[C@H](CCC(N)=O)NC(=O)[C@@H]1CSSC[C@H](N)C(=O)N[C@@H](CC(=O)O)C(=O)N[C@@H](C)C(=O)N[C@@H]([C@@H](C)O)C(=O)N1)C(C)C)C(C)C)C(=O)N[C@@H](CCC(N)=O)C(=O)N[C@@H](CCCCN)C(=O)N[C@@H](CCCNC(=N)N)C(=O)N[C@@H](Cc1ccc(O)cc1)C(N)=O [compound 437] (H-CDATCQYRKGLVASLYKKVAMQKRY-NH2; disulfide 1-5)
  IC50: > 100 nM

## CSCC[C@H](NC(=O)[C@H](CO)NC(=O)[C@H](C)NC(=O)[C@H](CCCCN)NC(=O)[C@H](Cc1ccccc1)NC(=O)[C@@H](NC(=O)[C@H](CO)NC(=O)[C@H](C)NC(=O)[C@@H](NC(=O)[C@H](CC(C)C)NC(=O)CNC(=O)[C@H](CCCCN)NC(=O)[C@H](CCCNC(=N)N)NC(=O)[C@H](Cc1ccc(O)cc1)NC(=O)[C@H](CCC(N)=O)NC(=O)[C@@H]1CSSC[C@H](N)C(=O)N[C@@H](CC(=O)O)C(=O)N[C@@H](C)C(=O)N[C@@H]([C@@H](C)O)C(=O)N1)C(C)C)C(C)C)C(=O)N[C@@H](CCCCN)C(=O)N[C@@H](CCC(N)=O)C(=O)N[C@@H](CCCCN)C(=O)N[C@@H](CCCCN)C(=O)N[C@@H](CCCCN)C(=O)N[C@@H](CCC(=O)O)C(=O)N[C@@H](Cc1ccccc1)C(=O)N[C@@H](CCCCN)C(=O)N[C@@H](C)C(=O)NCC(=O)O [compound 438] (H-CDATCQYRKGLVASVFKASMKQKKKEFKAG-OH; disulfide 1-5)
  IC50: > 100 nM

## CC[C@H](C)[C@H](NC(=O)[C@H](C)NC(=O)[C@H](CCCCN)NC(=O)[C@H](CCCNC(=N)N)NC(=O)[C@H](Cc1ccccc1)NC(=O)[C@H](CCC(N)=O)NC(=O)[C@@H]1CSSC[C@H](N)C(=O)N[C@@H](CC(=O)O)C(=O)N[C@@H](C)C(=O)N[C@@H]([C@@H](C)O)C(=O)N1)C(=O)N[C@@H](CC(=O)O)C(=O)N[C@@H](CC(=O)O)C(=O)N[C@H]1CSSC[C@@H](C(=O)N[C@@H](CCSC)C(=O)N[C@@H](CCCCN)C(=O)N[C@@H](CCC(N)=O)C(=O)N[C@@H](CCCCN)C(=O)N[C@@H](CCCCN)C(=O)N[C@@H](CCCCN)C(=O)N[C@@H](CCC(=O)O)C(=O)N[C@@H](Cc2c[nH]c3ccccc23)C(=O)N[C@@H](CCCCN)C(=O)N[C@@H](C)C(=O)NCC(=O)N[C@@H](Cc2c[nH]cn2)C(=O)O)NC(=O)[C@H](C)NC(=O)[C@H](CCCCN)NC(=O)[C@H](Cc2ccccc2)NC(=O)[C@H](CO)NC(=O)[C@H](Cc2c[nH]cn2)NC(=O)[C@H](Cc2ccc(O)cc2)NC(=O)[C@H](C)NC(=O)[C@H](CCC(N)=O)NC(=O)[C@H](CCCNC(=N)N)NC(=O)[C@H](C)NC1=O [compound 439] (H-CDATCQFRKAIDDCARQAYHSFKACMKQKKKEWKAGH-OH; disulfide 1-5, 14-25)
  IC50: 0.01 to 1 nM

## CC[C@H](C)[C@H](NC(=O)[C@H](C)NC(=O)[C@H](CCCCN)NC(=O)[C@H](CCCNC(=N)N)NC(=O)[C@H](Cc1ccccc1)NC(=O)[C@H](CCC(N)=O)NC(=O)[C@H](CO)NC(=O)[C@@H](NC(=O)[C@H](C)N)[C@@H](C)O)C(=O)N[C@@H](CC(=O)O)C(=O)N[C@@H](CC(=O)O)C(=O)N[C@H]1CSSC[C@@H](C(=O)N[C@@H](CCSC)C(=O)N[C@@H](CCCCN)C(=O)N[C@@H](CCC(N)=O)C(=O)N[C@@H](CCCCN)C(=O)N[C@@H](CCCCN)C(=O)N[C@@H](CCCCN)C(=O)N[C@@H](CCC(=O)O)C(=O)N[C@@H](Cc2c[nH]c3ccccc23)C(=O)N[C@@H](CCCCN)C(=O)O)NC(=O)[C@H](C)NC(=O)[C@H](CCCCN)NC(=O)[C@H](Cc2ccccc2)NC(=O)[C@H](C(C)C)NC(=O)[C@H](CO)NC(=O)[C@H](CO)NC(=O)[C@H](Cc2c[nH]cn2)NC(=O)[C@H](Cc2ccc(O)cc2)NC(=O)[C@H](C)NC(=O)[C@H](CCC(N)=O)NC(=O)[C@H](CCCNC(=N)N)NC(=O)[C@H](C)NC1=O [compound 440] (H-ATSQFRKAIDDCARQAYHSSVFKACMKQKKKEWK-OH; disulfide 12-25)
  IC50: 1 to 100 nM

## CC[C@H](C)[C@@H]1NC(=O)[C@@H](NC(=O)[C@H](CCCCN)NC(=O)[C@H](CCCNC(=N)N)NC(=O)[C@H](Cc2ccccc2)NC(=O)[C@H](CCC(N)=O)NC(=O)[C@H](CO)NC(=O)[C@@H](NC(=O)[C@H](C)NC(=O)[C@H](CC(=O)O)NC(=O)[C@@H](N)CO)[C@@H](C)O)CSSC[C@@H](C(=O)N[C@@H](CCCCN)C(=O)N[C@@H](CCC(N)=O)C(=O)N[C@@H](CCCCN)C(=O)N[C@@H](CCCCN)C(=O)N[C@@H](CCCCN)C(=O)N[C@@H](CCC(=O)O)C(=O)N[C@@H](Cc2c[nH]c3ccccc23)C(=O)N[C@@H](CCCCN)C(=O)N[C@@H](C)C(=O)NCC(=O)N[C@@H](Cc2c[nH]cn2)C(=O)O)NC(=O)[C@H](CO)NC(=O)[C@H](C)NC(=O)[C@H](CCCCN)NC(=O)[C@H](Cc2ccccc2)NC(=O)[C@H](C)NC(=O)CNC(=O)[C@H](CO)NC(=O)[C@H](CC(=O)O)NC(=O)[C@H](CC(=O)O)NC1=O [compound 441] (H-SDATSQFRKCIDDSGAFKASCKQKKKEWKAGH-OH; disulfide 10-21)
  IC50: 1 to 100 nM
